The results in this text go back to patent US20210261539A1, “COMPOUND HAVING BET INHIBITORY ACTIVITY AND PREPARATION METHOD AND USE THEREFOR” (Shanghai Haihe Pharmaceutical Co., Ltd., priority 2018, published 2021).

SMILES strings stand for the structures.

For the assay, the target named is T1, BRD4 BD1 (Homo sapiens, UniProt O60885).
T1 construct: Protein BRD4 BD1 used in the assay was purchased from Active Motif (cat. 31380); purchased Active Motif 31380
The assay can be described thus: HTRF in vitro enzyme activity assay, inhibition of BRD4 BD1 binding to acetylated H4 peptide. To be noted: IC50 values of the compounds against BRD4 BD1 binding; class symbols A/B/C. The gist of the method:
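Recombinant human BRD4 BD1 (30 nM final) incubated with compound and biotinylated tetra-acetylated H4(1-21) peptide, 30 min at 37 °C; 5-point 1:5 dilution series, 0.1% DMSO final. HTRF read after 3 h at RT with SA-XL665 and Eu(K)-labelled antibody; IC50 derived.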

As usually defined, the IC50 is the concentration needed to halve the response being measured. Low readings indicate greater potency in that assay, high ones weaker potency in that assay. In the case of `CC1C(=O)N(C)c2ccc(N3C(=O)c4ccccc4C3c3ccc(F)nc3)nc2N1C1CC1` (single isomer, unassigned) [Example A67-P3, 4-cyclopropyl-1,3-dimethyl-6-(1-oxo-3-(6-fluoropyridin-3-yl)isoindolin-2-yl)-3,4-dihydropyrido[3,2-b]pyrazin-2-(1H)-one], the IC50 was not above 10 nM.
As for `CC1C(=O)N(C)c2c(F)cc(N3C(=O)c4ccccc4C3c3cccnc3)cc2N1C1CC1` (single isomer, unassigned) [Example A71-P4, 4-cyclopropyl-8-fluoro-1,3-dimethyl-6-(1-oxo-3-(pyridin-3-yl)isoindolin-2-yl)-3,4-dihydroquinoxalin-2(1H)-one], the IC50 is not above 10 nM.
In the case of `CC1C(=O)N(C)c2ccc(N3C(=O)c4ccccc4C3c3ccc(F)cc3)nc2N1C1CCCC1` (racemic) [Example A38-P2, 4-cyclopentyl-6-(1-(4-fluorophenyl)-3-oxoisoindolin-2-yl)-1,3-dimethyl-3,4-dihydropyrido [2,3-b]pyrazin-2(1H)-one] it was not above 10 nM; in that of `Cc1cc(N2C(=O)CCC2c2ccccc2)nc2c1N(C)C(=O)C(C)N2C1CC1` (single isomer, unassigned) [Example A9-P1-2, 4-cyclopropyl-1,3,8-trimethyl-6-(2-oxo-5-phenylpyrrolidin-1-yl)-3,4-dihydropyrido[2,3-b]pyrazin-2(1H)-one], 10 to 100 nM; in that of `CC1C(=O)N(C)c2ccc(N3C(=O)NCC3c3ccccc3)nc2N1C1CC1` (single isomer, unassigned) [Example A18-P4, 4-cyclopropyl-1,3-dimethyl-6-(2-oxo-5-phenylimidazolidin-1-yl)-3,4-dihydropyrido[2,3-b]pyrazin-2(1H)-one], not above 10 nM.
Turning to `CC1C(=O)N(CF)c2ccc(N3C(=O)c4ccccc4C3c3cccnc3)nc2N1C1CC1` (stereo not drawn) [Example A45-P4, 4-cyclopropyl-1-(fluoromethyl)-3-methyl-6-(1-oxo-3-(pyridin-3-yl)isoindolin-2-yl)-3,4-dihydropyrido [2,3-b]pyrazin-2(1H)-one], the IC50 was not above 10 nM.
Next, `C[C@H]1Oc2nc(N3C(=O)c4ccccc4C3c3ccc(F)nc3)ccc2N(C)C1=O` (single isomer, unassigned) [Example A111-P1]: not above 10 nM.
Next, `CC1C(=O)N(C)c2ccc(N3C(=O)CCC3c3ccc(F)cc3)nc2N1C1CC1` (single isomer, unassigned) [Example A22-P1, 4-cyclopropyl-6-(2-(4-fluorophenyl)-5-oxopyrrolidin-1-yl)-1,3-dimethyl-3,4-dihydropyrido[2,3-b]pyrazin-2(1H)-one]: 10 to 100 nM; `C[C@@H]1C(=O)N(C)c2cnc(N3C(=O)c4c(cccc4S(C)(=O)=O)C3(O)c3cccnc3)nc2N1C` (stereo partly drawn) [Example A104-P3, (7R)-2-(1-hydroxy-4-(methylsulfonyl)-3-oxo-1-(pyridin-3-yl)isoindolin-2-yl)-5,7,8-trimethyl-7,8-dihydropteridin-6(5H)-one]: not above 10 nM.
Next, `CNC(=O)c1cccc2c1C(=O)N(c1ccc3c(n1)N(C1CC1)C(C)C(=O)N3C)C2c1cccnc1` (single isomer, unassigned) [Example A83-P3]: not above 10 nM; `CSc1cccc2c1C(=O)N(c1ccc3c(n1)N(C1CC1)C(C)C(=O)N3C)C2c1cccnc1` (single isomer, unassigned) [Example A65-P3, 4-cyclopropyl-1,3-dimethyl-6-(4-(methylthio)-3-oxo-1-(pyridin-3-yl)isoindolin-2-yl)-3,4-dihydropyrido[2,3-b]pyrazin-2(1H)-one]: not above 10 nM; `CC1C(=O)N(C)c2ccc(N3C(=O)CCC3c3ccccc3)nc2N1C1CCCC1` (single isomer, unassigned) [Example A2-P2-2, 4-cyclopentyl-1,3-dimethyl-6-(2-oxo-5-phenylpyrrolidin-1-yl)-3,4-dihydropyrido[2,3-b]pyrazin-2(1H)-one]: not above 10 nM.
`CC1C(=O)N(C)c2ccc(N3C(=O)c4cc(F)ccc4C3c3cccnc3)nc2N1C1CC1` (single isomer, unassigned) [Example A74-P4, 4-cyclopropyl-6-(5-fluoro-3-oxo-1-(pyridin-3-yl)isoindolin-2-yl)-1,3-dimethyl-3,4-dihydropyrido[2,3-b]pyrazin-2(1H)-one] returned an IC50 not above 10 nM.
Next, `CC(=O)N1c2nc(N3C(=O)CCC3c3ccc(F)cc3)ccc2N(C)C(=O)[C@H]1C` (single isomer, unassigned) [Example A17-P1]: 100 to 1000 nM; `C[C@@H]1C(=O)N(C)c2cnc(N3C(=O)c4ccccc4C3c3ccc(F)nc3)nc2N1C` (single isomer, unassigned) [Example A91-P2]: not above 10 nM.
Next, `C[C@H]1Oc2nc(N3C(=O)c4ccccc4C3c3ccc(Cl)cc3)ccc2N(C)C1=O` (stereo partly drawn) [Example A40-P1, (3R)-6-(1-(4-chlorophenyl)-3-oxoisoindolin-2-yl)-1,3-dimethyl-1H-pyrido[2,3-B][1,4]oxazin-2(3H)-one]: not above 10 nM.
Next, `CCN1c2nc(N3C(=O)CCC3c3ccc(F)cc3)ccc2N(C)C(=O)[C@H]1C` (single isomer, unassigned) [Example A16-P1]: not above 10 nM; `C[C@@H]1C(=O)N(C)c2ccc(N3C(=O)CCC3c3ccccc3)nc2N1C1CCOCC1` (single isomer, unassigned) [Example A5-P1]: not above 10 nM; `C[C@@H]1C(=O)N(C)c2ccc(N3C(=O)c4c(cccc4[S+](C)[O-])C3c3cccnc3)nc2N1C` (single isomer, unassigned) [Example A63-P3]: not above 10 nM.
`CC1C(=O)N(C)c2ccc(N3C(=O)c4ccccc4C3c3ccccc3)nc2N1C1CC1` (single isomer, unassigned) [Example A11-P3, 4-cyclopropyl-1,3-dimethyl-6-(1-oxo-3-phenylisoindolin-2-yl)-3,4-dihydropyrido[2,3-b]pyrazin-2(1H)-one]: the IC50 is not above 10 nM.
In the case of `CC1C(=O)N(C)c2ccc(N3C(=O)c4c(C(=O)N5CCN(C)CC5)cccc4C3c3ccc(F)cc3)nc2N1C1CC1` (single isomer, unassigned) [Example A82-P4] it was not above 10 nM; in that of `C[C@@H]1C(=O)N(C)c2ccc(N3C(=O)c4c(cccc4S(C)(=O)=O)C3c3cccnc3)nc2N1C` (single isomer, unassigned) [Example A62-P1], not above 10 nM; in that of `CC1C(=O)N(C)c2ccc(N3C(=O)c4ccccc4C3c3ccncc3)nc2N1C1CC1` (stereo not drawn) [Example A58-P1, 4-cyclopropyl-1,3-dimethyl-6-(1-oxo-3-(pyridin-4-yl)isoindolin-2-yl)-3,4-dihydropyrido[2,3-b]pyrazin-2(1H)-one], not above 10 nM.
In the case of `C[C@H]1Oc2nc(N3C(=O)c4sccc4C3c3cccnc3)ccc2N(C)C1=O` (single isomer, unassigned) [Example A115-P1] it was not above 10 nM.
Next, `CC1C(=O)N(C)c2ccc(N3C(=O)c4cccnc4C3(O)c3ccc(F)cc3F)nc2N1C1CC1` (single isomer, unassigned) [Example A13-P1, 4-cyclopropyl-6-(7-(2,4-difluorophenyl)-7-hydroxy-5-oxo-5,7-dihydro-6H-pyrrolo[3,4-b]pyridin-6-yl)-1,3-dimethyl-3,4-dihydropyrido[2,3-b]pyrazin-2(1H)-one]: not above 10 nM.
Compound `CC1Oc2nc(N3C(=O)c4ccccc4C3c3ccc(F)cc3)ccc2N(C)C1=O` (stereo not drawn) [Example A39-P1, 6-(1-(4-fluorophenyl)-3-oxoisoindolin-2-yl)-1,3-dimethyl-1H-pyrido[2,3-b][1,4]oxazin-2(3H)-one] displayed an IC50 not above 10 nM.
On to `CC[S+]([O-])c1cccc2c1C(=O)N(c1ccc3c(n1)N(C1CC1)C(C)C(=O)N3C)C2c1cccnc1` (stereo not drawn) [Example A73, 4-cyclopropyl-6-(4-(ethylsulfinyl)-3-oxo-1-(pyridin-3-yl)isoindolin-2-yl)-1,3-dimethyl-3,4-dihydropyrido[2,3-b]pyrazin-2(1H)-one], for which the half-inhibitory concentration (IC50) was not above 10 nM.
Next, `CC1C(=O)N(C)c2ccc(N3C(=O)c4ccccc4C3c3cccnc3)nc2N1C1COC1` (stereo not drawn) [Example A54-P4, 1,3-dimethyl-4-(oxetan-3-yl)-6-(1-oxo-3-(pyridin-3-yl)isoindolin-2-yl)-3,4-dihydropyrido [2,3-b]pyrazin-2(1H)-one]: not above 10 nM.
In the case of `C[C@H]1Oc2nc(N3C(=O)c4cc(F)ccc4C3c3cccnc3)c(F)cc2N(C)C1=O` (stereo partly drawn) [Example A118, (3R)-7-fluoro-6-(5-fluoro-3-oxo-1-(pyridin-3-yl)isoindolin-2-yl)-1,3-dimethyl-1H-pyrido[2,3-B][1,4]oxazin-2(3H)-one] it was 100 to 1000 nM; in that of `C[C@@H]1C(=O)N(C)c2cnc(N3C(=O)c4ccccc4C3c3cccnc3)nc2N1C` (stereo partly drawn) [Example A90-P4, (7R)-5,7,8-trimethyl-2-(1-oxo-3-(pyridin-3-yl)isoindolin-2-yl)-7,8-dihydropteridin-6(5H)-one], not above 10 nM; in that of `C[C@H]1Oc2nc(N3C(=O)c4c(cccc4[S+](C)[O-])C3c3cccnc3)ccc2N(C)C1=O` (single isomer, unassigned) [Example A127-P1], not above 10 nM.
In the case of `CC1Oc2nc(-n3c(=O)c4ccccc4n3-c3ccc(Cl)cc3)ccc2N(C)C1=O` (stereo not drawn) [Example A32-P3, 6-(1-(4-chlorophenyl)-3-oxo-1,3-dihydro-2H-indazol-2-yl)-1,3-dimethyl-1H-pyrido[2,3-B][1,4]oxazin-2(3H)-one] it was 10 to 100 nM.
Consider `CC1C(=O)N(C)c2ccc(N3C(=O)c4c(cccc4C(C)(C)O)C3c3ccc(F)cc3)nc2N1C1CC1` (single isomer, unassigned) [Example A79-P4, 4-cyclopropyl-6-(1-(4-fluorophenyl)-4-(2-hydroxyprop-2-yl)-3-oxoisoindolin-2-yl)-1,3-dimethyl-3,4-dihydropyrido[2,3-b]pyrazin-2(1H)-one], for which the IC50 was not above 10 nM.
